From the supplement of paper PMC12463676, “Small-molecule dissolution of stress granules by redox modulation benefits ALS models” (Nature Chemical Biology, 2025) come the findings set out here.

Compound in one assay: NC(=O)CCCCC1CCSS1 [lipoamide]
The assay is described as follows: thermal stability z-score vs DMSO; higher = more thermally stabilized by treatment. The following applies: HeLa, lipoamide concentration 100 µM. The protocol: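 Cellular thermal proteome profiling in HeLa cells. Cells were treated with 100 µM lipoamide for 1 h, with or without 1 mM arsenate for a further 1 h, then heated to ten temperatures (37-66.3 °C), and soluble protein was quantified by TMT mass spectrometry relative to 0.1% DMSO controls. The thermal stability score (sum of log2 fold changes minus the abundance score) was transformed to a z-score; mean of n = 3 experiments.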

Compound in a further assay: O=[As]([O-])(O)O.[K+] [potassium arsenate]
The description is as above. The following applies: HeLa; arsenate concentration 1 mM. The protocol:
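Cellular thermal proteome profiling in HeLa cells treated with 1 mM arsenate for 1 h (DMSO pretreatment), heated to ten temperatures (37-66.3 °C). Soluble protein was quantified by TMT mass spectrometry relative to DMSO controls; the thermal stability score was transformed to a z-score; mean of n = 3 experiments.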

Setting [1] is: arsenate co-treatment: 1 mM arsenate 1 h.
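Further: each temperature applied for 3 min, abundance score taken as mean log2 fold change at the two lowest temperatures, z-score obtained by mean subtraction and division by SD.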

UniProt P50616, sequence (P50616 whole entry): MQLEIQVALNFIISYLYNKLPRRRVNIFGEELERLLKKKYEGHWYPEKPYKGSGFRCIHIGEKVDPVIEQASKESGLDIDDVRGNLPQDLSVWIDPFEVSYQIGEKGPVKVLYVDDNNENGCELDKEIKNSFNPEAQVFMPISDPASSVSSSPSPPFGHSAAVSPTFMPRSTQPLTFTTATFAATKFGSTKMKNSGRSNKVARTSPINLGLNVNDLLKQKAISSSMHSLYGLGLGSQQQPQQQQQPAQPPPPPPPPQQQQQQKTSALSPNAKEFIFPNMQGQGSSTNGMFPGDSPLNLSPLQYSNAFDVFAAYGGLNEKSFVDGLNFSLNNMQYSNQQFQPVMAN
UniProt Q6ZVM7, sequence (Q6ZVM7 whole entry): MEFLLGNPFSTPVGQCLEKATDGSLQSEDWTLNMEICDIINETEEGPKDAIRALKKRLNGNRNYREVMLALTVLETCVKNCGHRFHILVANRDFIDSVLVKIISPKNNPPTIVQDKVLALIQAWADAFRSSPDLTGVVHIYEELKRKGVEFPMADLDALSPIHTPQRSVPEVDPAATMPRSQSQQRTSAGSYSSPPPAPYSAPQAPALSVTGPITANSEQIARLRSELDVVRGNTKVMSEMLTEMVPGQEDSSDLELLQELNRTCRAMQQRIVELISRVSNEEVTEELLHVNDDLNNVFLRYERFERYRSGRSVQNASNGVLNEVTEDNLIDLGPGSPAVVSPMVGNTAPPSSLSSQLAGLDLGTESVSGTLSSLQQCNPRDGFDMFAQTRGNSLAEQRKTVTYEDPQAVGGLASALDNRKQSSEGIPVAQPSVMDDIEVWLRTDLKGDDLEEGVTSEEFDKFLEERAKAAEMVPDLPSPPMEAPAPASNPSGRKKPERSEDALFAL
UniProt O14657, sequence (O14657 whole entry): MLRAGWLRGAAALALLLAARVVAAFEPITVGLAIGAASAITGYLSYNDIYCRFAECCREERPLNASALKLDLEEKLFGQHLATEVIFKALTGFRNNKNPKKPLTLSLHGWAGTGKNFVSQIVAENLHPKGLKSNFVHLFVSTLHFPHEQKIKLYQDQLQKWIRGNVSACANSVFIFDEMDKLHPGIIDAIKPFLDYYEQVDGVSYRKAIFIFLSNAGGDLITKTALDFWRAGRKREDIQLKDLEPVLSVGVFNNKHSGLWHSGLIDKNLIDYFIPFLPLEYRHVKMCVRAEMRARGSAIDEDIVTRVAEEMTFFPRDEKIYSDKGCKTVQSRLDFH
UniProt Q9C0C2, sequence (Q9C0C2 whole entry): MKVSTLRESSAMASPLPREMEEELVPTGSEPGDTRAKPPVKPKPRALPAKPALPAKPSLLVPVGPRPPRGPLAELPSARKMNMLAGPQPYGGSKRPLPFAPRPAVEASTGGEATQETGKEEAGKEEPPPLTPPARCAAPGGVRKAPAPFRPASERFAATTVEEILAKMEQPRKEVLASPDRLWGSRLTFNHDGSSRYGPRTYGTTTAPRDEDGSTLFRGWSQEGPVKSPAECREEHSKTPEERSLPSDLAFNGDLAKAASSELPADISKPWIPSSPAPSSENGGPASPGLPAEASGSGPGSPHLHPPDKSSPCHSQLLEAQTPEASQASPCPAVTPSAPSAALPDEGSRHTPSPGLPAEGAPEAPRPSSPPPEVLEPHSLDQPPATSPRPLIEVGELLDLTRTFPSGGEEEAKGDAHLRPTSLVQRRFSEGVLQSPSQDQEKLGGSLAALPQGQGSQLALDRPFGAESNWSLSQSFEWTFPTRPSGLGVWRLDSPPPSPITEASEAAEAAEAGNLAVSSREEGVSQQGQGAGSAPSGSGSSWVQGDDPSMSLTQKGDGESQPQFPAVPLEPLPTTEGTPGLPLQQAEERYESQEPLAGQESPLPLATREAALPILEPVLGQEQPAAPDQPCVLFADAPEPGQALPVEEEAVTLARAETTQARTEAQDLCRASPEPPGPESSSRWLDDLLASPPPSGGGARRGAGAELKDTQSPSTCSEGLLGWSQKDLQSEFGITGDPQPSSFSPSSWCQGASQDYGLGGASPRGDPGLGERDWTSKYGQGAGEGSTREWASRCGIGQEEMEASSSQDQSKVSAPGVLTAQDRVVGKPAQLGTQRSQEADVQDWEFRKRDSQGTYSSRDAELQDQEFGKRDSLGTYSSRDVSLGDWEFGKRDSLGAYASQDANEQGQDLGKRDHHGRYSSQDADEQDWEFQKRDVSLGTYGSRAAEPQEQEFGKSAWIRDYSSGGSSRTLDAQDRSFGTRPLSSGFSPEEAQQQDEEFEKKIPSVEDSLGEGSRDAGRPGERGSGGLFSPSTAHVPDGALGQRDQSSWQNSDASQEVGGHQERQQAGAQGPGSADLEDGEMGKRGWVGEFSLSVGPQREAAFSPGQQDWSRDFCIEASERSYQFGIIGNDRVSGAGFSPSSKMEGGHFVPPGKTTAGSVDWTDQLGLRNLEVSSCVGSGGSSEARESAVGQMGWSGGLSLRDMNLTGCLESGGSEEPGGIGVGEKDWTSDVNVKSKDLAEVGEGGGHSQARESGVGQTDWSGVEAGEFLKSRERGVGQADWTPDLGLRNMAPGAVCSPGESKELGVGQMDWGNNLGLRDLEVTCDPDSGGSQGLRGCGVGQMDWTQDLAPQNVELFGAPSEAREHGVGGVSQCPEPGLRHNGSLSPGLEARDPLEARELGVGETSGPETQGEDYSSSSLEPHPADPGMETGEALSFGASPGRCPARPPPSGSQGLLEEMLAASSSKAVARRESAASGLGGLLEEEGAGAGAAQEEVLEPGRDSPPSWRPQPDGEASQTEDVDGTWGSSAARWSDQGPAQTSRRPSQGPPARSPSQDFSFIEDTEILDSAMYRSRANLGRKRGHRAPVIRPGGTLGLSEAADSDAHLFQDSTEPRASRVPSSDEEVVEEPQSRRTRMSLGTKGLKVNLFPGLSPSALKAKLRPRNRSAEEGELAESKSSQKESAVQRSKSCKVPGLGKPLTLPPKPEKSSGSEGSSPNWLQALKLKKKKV
UniProt Q13470, sequence (Q13470 whole entry): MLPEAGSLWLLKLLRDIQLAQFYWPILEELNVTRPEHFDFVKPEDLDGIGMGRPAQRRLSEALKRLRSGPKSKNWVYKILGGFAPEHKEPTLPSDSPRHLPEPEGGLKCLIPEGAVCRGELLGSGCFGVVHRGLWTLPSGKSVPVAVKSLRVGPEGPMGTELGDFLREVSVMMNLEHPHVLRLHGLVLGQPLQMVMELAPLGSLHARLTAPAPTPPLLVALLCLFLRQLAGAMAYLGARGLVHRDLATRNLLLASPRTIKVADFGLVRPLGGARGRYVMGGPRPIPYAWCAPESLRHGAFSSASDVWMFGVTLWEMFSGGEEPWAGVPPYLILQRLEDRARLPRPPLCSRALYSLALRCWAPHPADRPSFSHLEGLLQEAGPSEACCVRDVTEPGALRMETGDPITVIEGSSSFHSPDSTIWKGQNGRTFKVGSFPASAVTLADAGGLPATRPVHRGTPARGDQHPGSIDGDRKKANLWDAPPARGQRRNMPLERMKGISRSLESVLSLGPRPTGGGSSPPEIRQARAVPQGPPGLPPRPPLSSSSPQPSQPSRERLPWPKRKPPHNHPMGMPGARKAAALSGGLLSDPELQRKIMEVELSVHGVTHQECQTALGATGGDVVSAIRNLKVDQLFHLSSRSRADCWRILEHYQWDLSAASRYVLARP
UniProt Q9Y5L0, sequence (Q9Y5L0 whole entry): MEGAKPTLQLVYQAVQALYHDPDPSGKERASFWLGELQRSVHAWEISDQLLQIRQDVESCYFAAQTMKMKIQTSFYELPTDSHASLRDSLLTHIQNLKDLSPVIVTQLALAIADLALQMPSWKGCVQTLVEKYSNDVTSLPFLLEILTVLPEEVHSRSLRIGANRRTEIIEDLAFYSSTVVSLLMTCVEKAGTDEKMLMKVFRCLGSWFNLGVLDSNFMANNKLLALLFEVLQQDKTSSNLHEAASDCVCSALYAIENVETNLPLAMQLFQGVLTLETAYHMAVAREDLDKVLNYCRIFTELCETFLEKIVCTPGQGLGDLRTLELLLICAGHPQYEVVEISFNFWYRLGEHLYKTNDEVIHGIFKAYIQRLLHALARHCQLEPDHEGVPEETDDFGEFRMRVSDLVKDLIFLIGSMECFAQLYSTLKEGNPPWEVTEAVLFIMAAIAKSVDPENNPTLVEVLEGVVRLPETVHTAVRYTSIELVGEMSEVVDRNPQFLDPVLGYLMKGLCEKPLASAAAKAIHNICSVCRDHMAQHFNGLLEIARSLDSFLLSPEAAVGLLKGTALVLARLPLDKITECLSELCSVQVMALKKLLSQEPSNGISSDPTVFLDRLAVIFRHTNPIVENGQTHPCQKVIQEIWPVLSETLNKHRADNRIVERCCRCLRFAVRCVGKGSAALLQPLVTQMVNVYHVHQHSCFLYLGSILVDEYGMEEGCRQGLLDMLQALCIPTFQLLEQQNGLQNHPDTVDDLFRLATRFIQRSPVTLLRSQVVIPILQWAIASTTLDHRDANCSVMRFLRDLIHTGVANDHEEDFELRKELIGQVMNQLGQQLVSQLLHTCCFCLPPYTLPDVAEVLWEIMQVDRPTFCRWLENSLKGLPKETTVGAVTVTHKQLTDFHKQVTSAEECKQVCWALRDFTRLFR
UniProt Q53FA7, sequence (Q53FA7 whole entry): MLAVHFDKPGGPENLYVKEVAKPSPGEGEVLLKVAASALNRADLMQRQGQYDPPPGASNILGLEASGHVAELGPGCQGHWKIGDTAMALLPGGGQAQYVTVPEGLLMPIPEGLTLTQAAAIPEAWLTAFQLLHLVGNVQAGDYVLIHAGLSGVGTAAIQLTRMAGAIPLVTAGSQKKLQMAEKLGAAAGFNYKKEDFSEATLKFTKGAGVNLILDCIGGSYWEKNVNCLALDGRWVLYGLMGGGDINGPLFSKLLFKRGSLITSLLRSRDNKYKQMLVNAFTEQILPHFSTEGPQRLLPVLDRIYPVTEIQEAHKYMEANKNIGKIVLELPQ
UniProt Q9NS69, sequence (Q9NS69 whole entry): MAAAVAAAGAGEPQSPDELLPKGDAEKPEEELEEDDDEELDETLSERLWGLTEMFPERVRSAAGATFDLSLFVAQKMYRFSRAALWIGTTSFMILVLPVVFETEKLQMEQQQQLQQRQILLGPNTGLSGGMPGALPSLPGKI

As to TNFRSF10A (UniProt O00220), the values for the thermal stability z-score with lipoamide (setting [1]), in the assay with lipoamide (arsenate co-treatment: none) and with potassium arsenate were -1.82, -1.91 and -1.65, respectively.
Turning to TNFRSF10B (UniProt O14763), the thermal stability z-score is -0.753 in the assay with lipoamide (setting [1]), -0.414 in the assay with lipoamide (arsenate co-treatment: none) and 0.582 in the assay with potassium arsenate.
On to TNIP1 (UniProt Q15025), for which the thermal stability z-score was -0.261 with lipoamide (setting [1]), -0.828 with lipoamide (arsenate co-treatment: none) and -0.0487 with potassium arsenate.
Turning to TNIP2 (UniProt Q8NFZ5), the thermal stability z-score was determined as 0.0235 with lipoamide (setting [1]), 0.193 in the assay with lipoamide (arsenate co-treatment: none) and 0.126 with potassium arsenate.
For TNK1 (UniProt Q13470), the thermal stability z-score with lipoamide (setting [1]) was 0.0556; with lipoamide (arsenate co-treatment: none) it was 0.223; in the assay with potassium arsenate, -0.0895.
Regarding TNKS1BP1 (UniProt Q9C0C2), the thermal stability z-score with lipoamide (setting [1]) is -0.0132; in the assay with lipoamide (arsenate co-treatment: none), 0.146; in the assay with potassium arsenate, 3.12.
As for TNPO1 (UniProt Q92973), the figures for the thermal stability z-score with lipoamide (setting [1]), with lipoamide (arsenate co-treatment: none) and with potassium arsenate were -1.32, -1.31 and 1.98, respectively.
Taken in the same sequence, the figures for TNPO2 (UniProt O14787) were -1.26, -0.726 and 0.809.
Consider TNPO3 (UniProt Q9Y5L0), for which the thermal stability z-score is -0.654 in the assay with lipoamide (setting [1]), -0.367 with lipoamide (arsenate co-treatment: none) and -0.107 with potassium arsenate.
For TNRC6A (UniProt Q8NDV7) the same measures were -0.105, -0.121 and -0.416.
With TNRC6B (UniProt Q9UPQ9), the thermal stability z-score in the assay with lipoamide (setting [1]) was -0.194; with lipoamide (arsenate co-treatment: none), -0.00843; with potassium arsenate, -0.306.
Taken in the same sequence, the figures for TNS1 (UniProt Q9HBL0) were -0.0135, -0.0322 and -0.162.
Regarding TNS2 (UniProt Q63HR2), the values for the thermal stability z-score in the assay with lipoamide (setting [1]), with lipoamide (arsenate co-treatment: none) and with potassium arsenate were -0.0104, -0.0152 and -0.101, respectively.
Turning to TNS3 (UniProt Q68CZ2), the thermal stability z-score in the assay with lipoamide (setting [1]) is 0.341; with lipoamide (arsenate co-treatment: none), 0.204; in the assay with potassium arsenate, 1.32.
With TNS4 (UniProt Q8IZW8), the thermal stability z-score was -0.0278 with lipoamide (setting [1]), -0.078 with lipoamide (arsenate co-treatment: none) and -0.0861 with potassium arsenate.
TOB1 (UniProt P50616): the thermal stability z-score was -1.37 in the assay with lipoamide (setting [1]), -0.305 in the assay with lipoamide (arsenate co-treatment: none) and 0.159 in the assay with potassium arsenate.
Consider TOE1 (UniProt Q96GM8), for which the thermal stability z-score was 0.165 in the assay with lipoamide (setting [1]), 0.146 in the assay with lipoamide (arsenate co-treatment: none) and -2.54 with potassium arsenate.
For the target TOLLIP (UniProt Q9H0E2), the values for the thermal stability z-score with lipoamide (setting [1]), in the assay with lipoamide (arsenate co-treatment: none) and with potassium arsenate were 0.239, 0.158 and -0.313, respectively.
For TOM1 (UniProt O60784) the same measures were 0.231, -0.536 and 0.244.
Taken in the same sequence, the figures for TOM1L1 (UniProt O75674) were -1, -0.807 and -0.623.
Consider TOM1L2 (UniProt Q6ZVM7), for which the thermal stability z-score was -0.00565 in the assay with lipoamide (setting [1]), -0.0362 in the assay with lipoamide (arsenate co-treatment: none) and 0.0525 with potassium arsenate.
On to TOMM20 (UniProt Q15388), for which the thermal stability z-score came out at 0.133 with lipoamide (setting [1]), 1.67 with lipoamide (arsenate co-treatment: none) and 1.73 with potassium arsenate.
Taken in the same sequence, the figures for TOMM22 (UniProt Q9NS69) were 0.165, 0.384 and 0.468.
Taken in the same sequence, the figures for TOMM34 (UniProt Q15785) were 0.52, 0.356 and -0.0204.
Taken in the same sequence, the figures for TOMM40 (UniProt O96008) were 0.59, 0.961 and 1.15.
As to TOMM70 (UniProt O94826), the thermal stability z-score in the assay with lipoamide (setting [1]) is -0.0648; with lipoamide (arsenate co-treatment: none), 0.115; with potassium arsenate, -0.0776.
For TONSL (UniProt Q96HA7), the thermal stability z-score with lipoamide (setting [1]) was -0.0593; with lipoamide (arsenate co-treatment: none), 0.0162; in the assay with potassium arsenate, -0.339.
Turning to TOP1 (UniProt P11387), the values for the thermal stability z-score in the assay with lipoamide (setting [1]), in the assay with lipoamide (arsenate co-treatment: none) and in the assay with potassium arsenate were 0.0566, 0.449 and -0.734, respectively.
As to TOP2A (UniProt P11388), the results for the thermal stability z-score with lipoamide (setting [1]), with lipoamide (arsenate co-treatment: none) and in the assay with potassium arsenate were -0.141, 0.0459 and -0.293, respectively.
On to TOP2B (UniProt Q02880), for which the figures for the thermal stability z-score with lipoamide (setting [1]), with lipoamide (arsenate co-treatment: none) and in the assay with potassium arsenate were 0.61, 0.212 and -0.788, respectively.
As to TOP3A (UniProt Q13472), the thermal stability z-score with lipoamide (setting [1]) was -0.152; with lipoamide (arsenate co-treatment: none), 0.21; in the assay with potassium arsenate, -0.457.
For the target TOP3B (UniProt O95985), the thermal stability z-score with lipoamide (setting [1]) was 0.2; in the assay with lipoamide (arsenate co-treatment: none), -0.391; with potassium arsenate, -0.73.
Taken in the same sequence, the figures for TOPBP1 (UniProt Q92547) were 0.0371, 0.0228 and -0.623.
Regarding TOR1A (UniProt O14656), the thermal stability z-score with lipoamide (setting [1]) was -3.18; in the assay with lipoamide (arsenate co-treatment: none), -3.08; with potassium arsenate, 0.174.
As to TOR1AIP1 (UniProt Q5JTV8), the thermal stability z-score is -2.27 in the assay with lipoamide (setting [1]), -2.09 in the assay with lipoamide (arsenate co-treatment: none) and -0.146 with potassium arsenate.
With TOR1AIP2, the values for the thermal stability z-score in the assay with lipoamide (setting [1]), with lipoamide (arsenate co-treatment: none) and in the assay with potassium arsenate were -3.46, -2.77 and -0.134, respectively.
As for TOR1B (UniProt O14657), the thermal stability z-score in the assay with lipoamide (setting [1]) is -2.23; with lipoamide (arsenate co-treatment: none) it was -2.79; with potassium arsenate, 1.11.
As to TOR3A (UniProt Q9H497), the thermal stability z-score with lipoamide (setting [1]) was -1.02; with lipoamide (arsenate co-treatment: none) it was -0.712; with potassium arsenate it was 0.553.
As for TOX4 (UniProt O94842), the thermal stability z-score is -0.0663 in the assay with lipoamide (setting [1]), -0.0734 with lipoamide (arsenate co-treatment: none) and -0.108 in the assay with potassium arsenate.
Taken in the same sequence, the figures for TP53BP1 (UniProt Q12888) were 1.4, 0.891 and -0.0759.
With TP53BP2 (UniProt Q13625), the results for the thermal stability z-score with lipoamide (setting [1]), with lipoamide (arsenate co-treatment: none) and with potassium arsenate were -1.06, 0.188 and -1.29, respectively.
Taken in the same sequence, the figures for TP53I3 (UniProt Q53FA7) were 0.135, -0.155 and -0.359.
